How the values were obtained:
[1] = test system: dextran sodium sulfate (DSS)-induced ulcerative colitis model in the rat; assay: Rat model of DSS-induced ulcerative colitis, 7-day repetitive intrarectal administration (Example 1); format: in vivo, SD rats; settings: 7 days; for Hb / Ht / RBC / WBC: hematological examination, i.r., DSS rat; for colon contraction: DSS rat (Figure 2)
Source text: The therapeutic effect of YY-1 was investigated with the 7-day repetitive intrarectal administration using a dextran sodium sulfate (DSS)-induced ulcerative colitis model in the rat (Cancer Research, 61, 2424-2428, 2001). To generate the rat model of DSS-induced ulcerative colitis, a 3% aqueous DSS solution was ingested ad libitum by SD rats (male, age: 7 weeks) purchased from Charles River Laboratories Japan Inc., and animals presenting bloody stools were used as the rat model of DSS-induced ulcerative colitis.
The negative control group received 0.5% aqueous CMC-Na solution (vehicle) by intrarectal administration, while the positive control group received 100 mg/kg/day 5-aminosalicylic acid (5-ASA, purchased from Aldrich Chemical Company) dissolved in 0.5% aqueous CMC-Na solution by intrarectal administration. For YY-1, the compound was combined with 0.5% aqueous CMC-Na solution by means of a vortex mixing and sonication to form a suspension, and was administered intrarectally at 20 mg/kg/day (low dose group), 100 mg/kg/day (intermediate dose group), and 500 mg/kg/day (high dose group). Each group contained 8 SD rats, and a 1% aqueous DSS solution was ingested ad libitum during the test period.

[2] = test system: dextran sodium sulfate (DSS)-induced ulcerative colitis model in the mouse; assay: Mouse model of DSS-induced ulcerative colitis, 7-day repetitive intrarectal administration, 5.0% DSS during test period (Example 2); format: in vivo, c57BL/6J mice; settings: 7 days; for body weight gain: P < 0.05 (Figure 4); for symptom alleviation: P < 0.05 (Figure 5); for colon contraction: P < 0.05 (Figure 6)
Source text: (§1) The therapeutic effect of YY-1 was investigated with the 7-day repetitive intrarectal administration using a dextran sodium sulfate (DSS)-induced ulcerative colitis model in the mouse. To generate the mouse model of DSS-induced ulcerative colitis, a 9.0% aqueous DSS solution was ingested ad libitum for 7 days by c57BL/6J (male, age: 8 weeks) purchased from CLEA Japan, Inc., and animals presenting body weight loss, bloody stool, and/or diarrhea were used as the mouse model of DSS-induced ulcerative colitis.
The negative control group received 0.5% aqueous CMC-Na solution by intrarectal administration, while the positive control group received 100 mg/kg/day 5-aminosalicylic acid (5-ASA, purchased from Aldrich Chemical Company) dissolved in 0.5% aqueous CMC-Na solution by intrarectal administration. For YY-1, the compound was combined with 0.5% aqueous CMC-Na solution by means of an ultrasound mixer under ice cooling to form a suspension, and was administered intrarectally at 100 mg/kg/day or 500 mg/kg/day. Each group contained 8 c57BL/6J mice, and a 5.0% aqueous DSS solution was ingested ad libitum during the test period (Figure 3).

[3] = test system: dextran sodium sulfate (DSS)-induced ulcerative colitis model in the mouse; assay: Mouse model of DSS-induced ulcerative colitis, 7-day repetitive intrarectal administration, 9.0% DSS during test period (Example 3); format: in vivo, c57BL/6J mice; settings: 500 mg/kg/day intrarectal, 7 days
Source text: as §1
The negative control group received 0.5% aqueous CMC-Na solution by intrarectal administration. For YY-1, the compound was combined with 0.5% aqueous CMC-Na solution by means of an ultrasound mixer under ice cooling to prepare a suspension, and was administered intrarectally at 500 mg/kg/day. Each group contained 8 c57BL/6J mice, and a 9.0% aqueous DSS solution was ingested ad libitum during the test period (Figure 7).

Nc1ccc(O)c(C(=O)O)c1 [5-ASA, 5-aminosalicylic acid, reference compound]
Hb ([1]; 100 mg/kg/day): 13.3 ± 0.4 g/dL
Ht ([1]; 100 mg/kg/day): 41.7 ± 1.1%
RBC ([1]; 100 mg/kg/day): 633 ± 27 x 10^4/µL
WBC ([1]; 100 mg/kg/day): 126 ± 20 x 10^2/µL

CC/C=C\C/C=C\C/C=C\C/C=C\C/C=C\C=C\C(O)CCC(=O)O (stereo not shown) [YY-1, (5E,7Z,10Z,13Z,16Z,19Z)-4-hydroxy-5,7,10,13,16,19-docosahexaenoic acid]
body weight gain ([2]; 100 mg/kg/day intrarectal): significant improvement
symptom alleviation ([2]; 100 mg/kg/day intrarectal): significant improvement
colon contraction ([2]; 100 mg/kg/day intrarectal): significant improvement
body weight gain ([2]; 500 mg/kg/day intrarectal): significant improvement
symptom alleviation ([2]; 500 mg/kg/day intrarectal): significant improvement
colon contraction ([2]; 500 mg/kg/day intrarectal): significant improvement
colon contraction ([1]; 100 mg/kg/day intrarectal): significant improvement
area of erosion in the mucous membrane of the colon ([1]; 500 mg/kg/day intrarectal, DSS rat (Figure 1)): significant reduction
colon contraction ([1]; 500 mg/kg/day intrarectal): significant improvement
Hb ([1]; 20 mg/kg/day): 11 ± 1.5 g/dL
Ht ([1]; 20 mg/kg/day): 35.5 ± 4.6%
RBC ([1]; 20 mg/kg/day): 519 ± 80 x 10^4/µL
WBC ([1]; 20 mg/kg/day): 136 ± 34 x 10^2/µL
Hb ([1]; 100 mg/kg/day): 12.2 ± 0.9 g/dL
Ht ([1]; 100 mg/kg/day): 41.5 ± 3.2%
RBC ([1]; 100 mg/kg/day): 605 ± 51 x 10^4/µL
WBC ([1]; 100 mg/kg/day): 120 ± 13 x 10^2/µL
Hb ([1]; 500 mg/kg/day): 13.8 ± 0.3 g/dL
Ht ([1]; 500 mg/kg/day): 45.7 ± 1.1%
RBC ([1]; 500 mg/kg/day): 670 ± 20 x 10^4/µL
WBC ([1]; 500 mg/kg/day): 138 ± 14 x 10^2/µL
colon contraction ([3]; P < 0.01 (Figure 10)): significant improvement
body weight gain ([3]; P < 0.05 (Figure 8)): significant improvement
symptom alleviation ([3]; P < 0.05 (Figure 9)): significant improvement
